For 8 compounds, binary diffusion coefficient results are on record in the NIST ThermoML archive (doi:10.1016/j.fluid.2006.12.001).

A short description of the series: xn = mol fraction of the nth substance listed. The following applies: 303.2 K; 101 kPa; Liquid; Taylor dispersion method; x1 = 0.
Regarding `CCCCn1cc[n+](C)c1.F[P-](F)(F)(F)(F)F` [1-butyl-3-methylimidazolium hexafluorophosphate] + O, the binary diffusion coefficient was found to be 1.25e-09 m2/s.
To `CCCCn1cc[n+](C)c1.F[B-](F)(F)F` [1-butyl-3-methylimidazolium tetrafluoroborate] + O belongs 1.3e-09 m2/s; to `CCn1cc[n+](C)c1.F[P-](F)(F)(F)(F)F` [1-ethyl-3-methylimidazolium hexafluorophosphate] + O, 1.41e-09 m2/s; to `CCn1cc[n+](C)c1.F[B-](F)(F)F` [1-ethyl-3-methylimidazolium tetrafluoroborate] + O, 1.52e-09 m2/s.
On to `CCCCCCn1cc[n+](C)c1.F[P-](F)(F)(F)(F)F` [1-hexyl-3-methylimidazolium hexafluorophosphate] + O, for which the binary diffusion coefficient worked out at 1.11e-09 m2/s.
For `CCCCCCn1cc[n+](C)c1.F[B-](F)(F)F` [1-hexyl-3-methylimidazolium tetrafluoroborate] + O, the binary diffusion coefficient is 1.24e-09 m2/s.
On to `CCCCCCCC[n+]1ccn(C)c1.F[B-](F)(F)F` [1-methyl-3-octylimidazolium tetrafluoroborate] + O, for which the binary diffusion coefficient was 1.14e-09 m2/s.
With `CCCCCCCC[n+]1ccn(C)c1.F[P-](F)(F)(F)(F)F` [1-octyl-3-methylimidazolium hexafluorophosphate] + O, the binary diffusion coefficient was found to be 1.06e-09 m2/s.
